This note sets out measurements from patent publication US20250108048A1, “STING AGONIST COMPOUNDS AND CONJUGATES” (SUTRO BIOPHARMA, INC., priority 2023, published 2025).

A value given as a limit tells only on which side of the number the result lay.

One experiment concerns the target T1, hSTING-R232 (Homo sapiens, UniProt Q86WV6, H232R).
T1 construct: host or cells: THP1-Dual KI-hSTING-R232 (from THP1-Dual KO-STING)
Description: THP1-Dual KI-hSTING-R232 reporter assay (IRF pathway, secreted Lucia luciferase). It counts as cell-based. Conditions: THP1-Dual KI-hSTING-R232 cells, 24 hours; read-out: Reporter assay EC50 (nM) THP-1-R232. The method, then:
(§1) The activities of the STING agonists to activate human or mouse STING pathways were evaluated in THP-1-Dual™, THP1-Dual™ KI-hSTING-R232, THP1-Dual™ KI-hSTING-H232 Cells and THP1-Dual™ KI-mSTING Cells. THP-1-Dual™ cells contains hSTING-HAQ haplotype and can be used to evaluate the activity of STING agonists by monitoring the activation of NF-κB pathway and the […] (IFN regulatory factor) pathways. THP1-Dual™ KO-STING cells were generated from THP1-Dual™ cells by stable knockout of the endogenous HAQ STING gene. THP1-Dual™ KI-hSTING-R232 cells, THP1-Dual™ KI-hSTING-H232 cells and THP1-Dual™ KI-mSTING cells were generated by transfecting THP1-Dual™ KO-STING cells with hSTING-R232 or hSTING-H232 or mSTING. Stimulating these reporter cells with a STING agonist activates TRF pathway and induces the production of a secreted Lucia luciferase in the cell culture medium, which can be determined using QUANTI-Luc™ reagent.
(§2) THP-1-Dual™, THP1-Dual™ KI-hSTING-R232, THP1-Dual™ KI-hSTING-H232 and THP1-Dual™ KI-mSTING reporter cells were purchased from Invivogen and maintained in manufacture recommended culture medium with required supplemental antibiotics. On the day of assay, the cells were harvested with Accutase and counted by the Vi-CELL Cell Viability Analyzers. Cells were resuspended in HEK blue detection medium and a total of 10000 cells were seeded in each well of a 384-well flat bottom plate. […] After incubation at 37° C. in a CO2 incubator for 24 hours, 20 μl of cell culture medium per well was transferred into a 384-well white (opaque) plate. 50 μl of QUANTI-Luc™ assay solution was then added to each well and the plate was immediately transferred to an ENVISION® plate reader to measure luminescence (Perkin-Elmer). Relative luminescence readings were converted to fold change of signal using untreated cells as controls. Data was fitted with non-linear regression analysis, using log (agonist) vs. response, variable slope, 4-parameter fit equation using GraphPad Prism. Data was expressed as fold change in signal vs. dose of STING agonist in nM with error bars indicating the Standard Deviation (SD) of the quadruplicates. There result was reported in Table 2 as EC50 (the midpoint of the curve, or concentration at which […] of the maximum effect was observed).
In general terms: Reporter assays use an easily measured gene product as a stand-in for the process of interest.

The target of a further experiment is T2, hSTING-HAQ haplotype (Homo sapiens, UniProt Q86WV6, G230A/H232R/R293Q/R71H).
T2 construct: host or cells: THP-1-Dual
T2 sequence (Q86WV6 whole entry R71H/G230A/H232R/R293Q): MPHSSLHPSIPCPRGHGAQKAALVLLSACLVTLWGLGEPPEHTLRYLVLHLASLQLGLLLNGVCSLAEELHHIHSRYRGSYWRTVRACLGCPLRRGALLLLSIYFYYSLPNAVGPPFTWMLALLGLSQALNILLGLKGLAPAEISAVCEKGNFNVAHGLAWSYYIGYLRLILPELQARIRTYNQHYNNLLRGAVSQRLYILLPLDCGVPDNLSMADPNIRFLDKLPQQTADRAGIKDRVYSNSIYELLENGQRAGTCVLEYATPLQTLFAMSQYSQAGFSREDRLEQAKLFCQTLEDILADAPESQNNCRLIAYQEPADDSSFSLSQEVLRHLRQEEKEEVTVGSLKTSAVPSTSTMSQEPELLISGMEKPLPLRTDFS
Kind of experiment: THP-1-Dual reporter assay (endogenous hSTING-HAQ). The conditions noted are these: THP-1-Dual cells (hSTING-HAQ), 24 hours. The experiment is classed as cell-based. How it is done:
as §1, §2

Experiment [1] addresses T3, mSTING (Mus musculus, UniProt Q3TBT3).
T3 sequence (Q3TBT3 1-378): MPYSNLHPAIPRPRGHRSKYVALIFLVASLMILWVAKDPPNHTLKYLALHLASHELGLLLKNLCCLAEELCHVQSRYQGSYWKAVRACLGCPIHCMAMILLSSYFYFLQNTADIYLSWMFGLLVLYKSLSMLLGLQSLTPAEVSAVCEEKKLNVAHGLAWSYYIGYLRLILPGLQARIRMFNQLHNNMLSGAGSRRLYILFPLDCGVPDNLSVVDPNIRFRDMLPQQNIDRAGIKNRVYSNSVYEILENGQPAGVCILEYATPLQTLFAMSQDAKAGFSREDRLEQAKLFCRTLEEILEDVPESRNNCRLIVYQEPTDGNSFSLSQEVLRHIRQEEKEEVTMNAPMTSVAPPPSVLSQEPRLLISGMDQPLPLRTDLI
Kind of experiment: 293-mSTING reporter assay. It counts as cell-based.

The next experiment deals with hSTING WT (Homo sapiens, UniProt Q86WV6). Kind of experiment: Surface plasmon resonance, hSTING WT. The conditions noted are these: read-out: hSTING WT SPR (Kd). It counts as binding. (In general: Surface plasmon resonance follows binding to a sensor surface in real time, without labels.)
hSTING WT, sequence (Q86WV6 whole entry H232R): as the sequence (Q86WV6 whole entry R71H/G230A/H232R/R293Q) above, with H71R, A230G, Q293R counted along it
In experiment [2] the target is T4, hSTING H232 (Homo sapiens, UniProt Q86WV6). Description: Surface plasmon resonance, hSTING H232. The experiment is classed as binding. The conditions noted are these: read-out: hSTING H232 SPR (Kd).
T4 sequence (Q86WV6 whole entry): as the sequence (Q86WV6 whole entry R71H/G230A/H232R/R293Q) above, with H71R, A230G, R232H, Q293R counted along it
In another experiment the target is hSTING AQ (Homo sapiens, UniProt Q86WV6, G230A/H232R/R293Q). Kind of experiment: Surface plasmon resonance, hSTING AQ. The experiment is classed as binding. The conditions noted are these: read-out: hSTING AQ SPR (Kd).
hSTING AQ, sequence (Q86WV6 whole entry G230A/H232R/R293Q): as the sequence (Q86WV6 whole entry R71H/G230A/H232R/R293Q) above, with H71R counted along it
Experiment [3] addresses T4, hSTING H232. Kind of experiment: THP1-Dual KI-hSTING-H232 reporter assay (IRF pathway, secreted Lucia luciferase). The conditions noted are these: THP1-Dual KI-hSTING-H232 cells, 24 hours; read-out: Reporter assay EC50 (nM) THP-1-H232. Also noted: host or cells: THP1-Dual KI-hSTING-H232 (from THP1-Dual KO-STING). It counts as cell-based. The method, then:
as §1, §2

Experiment [4] concerns the target T3, mSTING. Description: THP1-Dual KI-mSTING reporter assay. The conditions noted are these: THP1-Dual KI-mSTING cells, 24 hours; read-out: Reporter assay EC50 (nM) THP-1 mSTING. Also noted: host or cells: THP1-Dual KI-mSTING (from THP1-Dual KO-STING). The experiment is classed as cell-based. The method, then:
as §1
THP-1-Dual™, THP1-Dual™ KI-hSTING-R232, THP1-Dual™ KI-hSTING-H232 and THP1-Dual™ KI-mSTING reporter cells were purchased from Invivogen and maintained in manufacture recommended culture medium with required supplemental antibiotics. On the day of assay, the cells were harvested with Accutase and counted by the Vi-CELL Cell Viability Analyzers. Cells were resuspended in HEK blue detection medium and a total of 10000 cells were seeded in each well of a 384-well flat bottom plate. Serial dilutions of STING agonists free drugs (1:3 serial dilution starting from 5 uM) was added into treatment wells. After incubation at 37° C. in a CO2 incubator for 24 hours, 20 μl of cell culture medium per well was transferred into a 384-well white (opaque) plate. 50 μl of QUANTI-Luc™ assay solution was then added to each well and the plate was immediately transferred to an ENVISION® plate reader to measure luminescence (Perkin-Elmer). Relative luminescence readings were converted to fold change of signal using untreated cells as controls. Data was fitted with non-linear regression analysis, using log (agonist) vs. response, variable slope, 4-parameter fit equation using GraphPad Prism. Data was expressed as fold change in signal vs. dose of STING agonist in nM with error bars indicating the Standard Deviation (SD) of the quadruplicates. There result was reported in Table 2 as EC50 (the midpoint of the curve, or concentration at which […] of the maximum effect was observed).

T1 sequence (Q86WV6 whole entry H232R): as the sequence (Q86WV6 whole entry R71H/G230A/H232R/R293Q) above, with H71R, A230G, Q293R counted along it

`CCn1nc(C)cc1C(=O)Nc1nc2cc(C(N)=O)ccc2n1C/C=C/Cn1c(NC(=O)c2cc(C)nn2CC)nc2cc(C(N)=O)cc(OCCCN3CC4(C3)CN(C(=O)CON=C(C)c3ccc(C[C@H](N)C(=O)O)cc3)CCO4)c21` (racemic) [LP-1-4, rac-(2S)-2-amino-3-[4-[N-[2-[2-[3-[6-carbamoyl-2-[(2-ethyl-5-methyl-pyrazole-3-carbonyl)amino]-3-[rac-(E)-4-[5-carbamoyl-2-[(2-ethyl-5-methyl-pyrazole-3-carbonyl)amino]benzimidazol-1-yl]but-2-enyl]benzimidazol-4-yl]oxypropyl]-5-oxa-2,8-diazaspiro[3.5]nonan-8-yl]-2-oxo-ethoxy]-C-methyl-carbonimidoyl]phenyl]propanoic acid]: the EC50 on hSTING-R232, on hSTING-HAQ haplotype, on mSTING [1] and at hSTING H232 [3] was greater than 150 nM in each case. The Kd at hSTING WT, on hSTING H232 [2] and on hSTING AQ was no more than 20 nM throughout.

With `CCn1nc(C)cc1C(=O)Nc1nc2cc(C(N)=O)ccc2n1C/C=C/Cn1c(NC(=O)c2cc(C)nn2CC)nc2cc(C(N)=O)cc(OCCCN3CC4(C3)CN(C(=O)[C@@H](N)CC(C)C)CCO4)c21` [Compound 2, (E)-7-(3-(8-(L-leucyl)-5-oxa-2,8-diazaspiro[3.5]nonan-2-yl)propoxy)-1-(4-(5-carbamoyl-2-(1-ethyl-3-methyl-1H-pyrazole-5-carboxamido)-1H-benzo[d]imidazol-1-yl)but-2-en-1-yl)-2-(1-ethyl-3-methyl-1H-pyrazole-5-carboxamido)-1H-benzo[d]imidazole-5-carboxamide], the EC50 – broadly, the concentration needed to bring the measured effect to its halfway point – was no more than 50 nM at hSTING-R232, 50 to 150 nM on hSTING-HAQ haplotype, greater than 150 nM at mSTING [1] and no more than 50 nM at hSTING H232 [3]. Moreover, the Kd on hSTING WT, on hSTING H232 [2] and at hSTING AQ was no more than 20 nM each time.

`CCn1nc(C)cc1C(=O)Nc1nc2cc(C(N)=O)ccc2n1C/C=C/Cn1c(NC(=O)c2cc(C)nn2CC)nc2cc(C(N)=O)cc(OCCCN3CC4(C3)CN(C(=O)CN)CCO4)c21` [Compound 3]: the 50% effective concentration (EC50) on hSTING-R232 was 50 to 150 nM; at hSTING-HAQ haplotype it was 50 to 150 nM; on mSTING [1] it was greater than 150 nM; at hSTING H232 [3], 50 to 150 nM. Further, the Kd at hSTING WT, at hSTING H232 [2] and at hSTING AQ was no more than 20 nM throughout.

On to `CCn1nc(C)cc1C(=O)Nc1nc2cc(C(N)=O)ccc2n1C/C=C/Cn1c(NC(=O)c2cc(C)nn2CC)nc2cc(C(N)=O)cc(OCCCN3CC4(C3)CN(C(=O)[C@H](CC(C)C)NC(=O)CCCCCO/N=C(\C)c3ccc(C[C@H](N)C(=O)O)cc3)CCO4)c21` [LP-2-3], for which the 50% effective concentration (EC50) on hSTING-R232 is 50 to 150 nM; at hSTING-HAQ haplotype it was greater than 150 nM; at mSTING [4], greater than 150 nM; at hSTING H232 [3] it was 50 to 150 nM. Further, the Kd on hSTING WT, at hSTING H232 [2] and at hSTING AQ was no more than 20 nM in each case.

With `CCn1nc(C)cc1C(=O)Nc1nc2cc(C(N)=O)cc(OC)c2n1C/C=C/Cn1c(NC(=O)c2cc(C)nn2CC)nc2cc(C(N)=O)cc(OCCCN3CC4(C3)CN(C(=O)CCCCCON)CCO4)c21` [LP-6-1], the concentration giving a half-maximal response (EC50) at hSTING-R232, on hSTING-HAQ haplotype, on mSTING [4] and on hSTING H232 [3] was no more than 50 nM each time. Also, the dissociation constant (Kd) on hSTING WT, at hSTING H232 [2] and at hSTING AQ was no more than 20 nM in each case.

On to `CCc1nc(C)oc1C(=O)Nc1nc2cc(C(N)=O)cnc2n1C/C=C/Cn1c(NC(=O)c2oc(C)nc2CC)nc2cc(C(N)=O)cc(OCCCO)c21` [Reference Compd B, reference compound], for which the EC50 was no more than 50 nM at hSTING-R232, greater than 150 nM at hSTING-HAQ haplotype, no more than 50 nM at mSTING [4] and no more than 50 nM on hSTING H232 [3]. Moreover, the Kd at hSTING WT, on hSTING H232 [2] and at hSTING AQ was no more than 20 nM throughout.
